Measurements taken from PubChem BioAssay AID330 (DTP/NCI, 2004).
Values joined by “and” are separate entries in the source; they are usually repeats but may differ in a detail not shown here. Equal entries are not always repeated. Toxic doses and inconclusive results are not listed.

System: P388 leukemia ip, CD2F1 mice, survival T/C
Assay: NCI In Vivo Anticancer Drug Screen. Data for tumor model P388 Leukemia (intraperitoneal) in CD2F1 (CDF1) mice
Settings: endpoint: median survival time, higher = longer survival
How it was run: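 Mice carrying the transplanted tumor received test compound or vehicle. Survival was recorded in each group, and the value is the treated-group measurement divided by that of the vehicle-treated control group.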

[1] = dose: 60.0 mg/kg/injection, schedule: Q01DX005 (ip), vehicle: saline with Tween-80
[2] = dose: 120.0 mg/kg/injection, schedule: Q01DX005 (ip), vehicle: saline with Tween-80
[3] = dose: 240.0 mg/kg/injection, schedule: Q01DX005 (ip), vehicle: saline with Tween-80
[4] = dose: 50.0 mg/kg/injection, schedule: Q01DX005 (ip), vehicle: saline with Tween-80
[5] = dose: 50.0 mg/kg/injection, schedule: Q01DX009 (ip), vehicle: saline with Tween-80
[6] = dose: 100.0 mg/kg/injection, schedule: Q01DX009 (ip), vehicle: saline with Tween-80
[7] = dose: 200.0 mg/kg/injection, schedule: Q01DX009 (ip), vehicle: saline with Tween-80
[8] = dose: 400.0 mg/kg/injection, schedule: Q01DX009 (ip), vehicle: saline with Tween-80
[9] = dose: 50.0 mg/kg/injection, schedule: Q01DX005 (ip), vehicle: Klucel (hydroxypropylcellulose) (HPC)
[10] = dose: 100.0 mg/kg/injection, schedule: Q01DX005 (ip), vehicle: Klucel (hydroxypropylcellulose) (HPC)
[11] = dose: 200.0 mg/kg/injection, schedule: Q01DX005 (ip), vehicle: Klucel (hydroxypropylcellulose) (HPC)
[12] = dose: 12.5 mg/kg/injection, schedule: Q01DX009 (ip), vehicle: water
[13] = dose: 25.0 mg/kg/injection, schedule: Q01DX009 (ip), vehicle: water
[14] = dose: 50.0 mg/kg/injection, schedule: Q01DX009 (ip), vehicle: water

COC(=O)c1nc(SC)[nH]c1CC(N)=O
T/C [1]: 101 % of control
T/C [2]: 100 % of control
T/C [3]: 96 % of control

COC(=O)C1(CC(=O)c2cc(Cl)ccc2Cl)NC(=S)NC(=O)C1C#N (stereo unspecified)
T/C [1]: 94 % of control
T/C [2]: 92 % of control
T/C [3]: 95 % of control

CCC(=O)NC1c2ccccc2Oc2ccccc21
T/C [4]: 100 % of control
T/C (dose: 100.0 mg/kg/injection, schedule: Q01DX005 (ip), vehicle: saline with Tween-80): 100 % of control
T/C (dose: 200.0 mg/kg/injection, schedule: Q01DX005 (ip), vehicle: saline with Tween-80): 98 % of control

CCN(CC)Cc1cc(C)c(O)c(N=Nc2ccc3ccc4cccc5ccc2c3c45)c1C
T/C (dose: 12.5 mg/kg/injection, schedule: Q01DX009 (ip), vehicle: saline with Tween-80): 94 % of control
T/C (dose: 25.0 mg/kg/injection, schedule: Q01DX009 (ip), vehicle: saline with Tween-80): 87 % of control
T/C [5]: 99 % of control and 122 % of control and 90 % of control
T/C [6]: 105 % of control and 118 % of control and 94 % of control
T/C [7]: 100 % of control and 105 % of control
T/C [8]: 107 % of control

COC(C)C(Cl)C(=O)NN=C(c1ccccc1)c1ccccc1 (stereo unspecified)
T/C [5]: 108 % of control
T/C [6]: 105 % of control
T/C [7]: 99 % of control

COC(=O)/C=C/c1cc(=O)n2c(nc3ccccc32)s1
T/C (dose: 15.0 mg/kg/injection, schedule: Q01DX005 (ip), vehicle: Klucel (hydroxypropylcellulose) (HPC)): 100 % of control
T/C (dose: 30.0 mg/kg/injection, schedule: Q01DX005 (ip), vehicle: Klucel (hydroxypropylcellulose) (HPC)): 89 % of control
T/C (dose: 60.0 mg/kg/injection, schedule: Q01DX005 (ip), vehicle: Klucel (hydroxypropylcellulose) (HPC)): 86 % of control

O=C(/C=C/c1ccccc1)NC1C=Nc2ccc(Cl)cc2NC1=O (stereo unspecified)
T/C [1]: 97 % of control
T/C [2]: 95 % of control
T/C [3]: 97 % of control

CCCCCCCC(=O)NC(CCSC)C(=O)O (stereo unspecified)
T/C [9]: 107 % of control
T/C [10]: 88 % of control
T/C [11]: 104 % of control

Nc1nc(-c2ccccc2)nc(-c2ccccc2)n1
T/C (dose: 2.5 mg/kg/injection, schedule: Q01DX009 (ip), vehicle: saline): 104 % of control
T/C (dose: 3.12 mg/kg/injection, schedule: Q01DX009 (ip), vehicle: saline): 95 % of control
T/C (dose: 3.12 mg/kg/injection, schedule: Q01DX009 (ip), vehicle: suspension in saline): 100 % of control and 97 % of control
T/C (dose: 5.0 mg/kg/injection, schedule: Q01DX009 (ip), vehicle: saline): 104 % of control
T/C (dose: 6.25 mg/kg/injection, schedule: Q01DX009 (ip), vehicle: saline): 92 % of control
T/C (dose: 10.0 mg/kg/injection, schedule: Q01DX009 (ip), vehicle: saline): 100 % of control
T/C (dose: 12.5 mg/kg/injection, schedule: Q01DX009 (ip), vehicle: saline): 89 % of control
T/C (dose: 12.5 mg/kg/injection, schedule: Q01DX009 (ip), vehicle: suspension in saline): 93 % of control and 98 % of control
T/C (dose: 20.0 mg/kg/injection, schedule: Q01DX009 (ip), vehicle: saline): 100 % of control
T/C (dose: 25.0 mg/kg/injection, schedule: Q01DX009 (ip), vehicle: suspension in saline): 90 % of control and 98 % of control

N#Cc1ccc(OC(=O)Nc2cc(Cl)cc(Cl)c2)cc1
T/C [1]: 89 % of control
T/C [2]: 106 % of control
T/C [3]: 101 % of control

COc1cccc(C=Nc2cc(C)ccn2)c1O.COc1cccc(C=Nc2cc(C)ccn2)c1O.[Cu]
T/C (dose: 6.25 mg/kg/injection, schedule: Q01DX005 (ip), vehicle: saline with Tween-80): 99 % of control
T/C (dose: 12.5 mg/kg/injection, schedule: Q01DX005 (ip), vehicle: saline with Tween-80): 100 % of control
T/C (dose: 25.0 mg/kg/injection, schedule: Q01DX005 (ip), vehicle: saline with Tween-80): 96 % of control

C1CNP2(=NP(N3CC3)(N3CC3)=NP(N3CC3)(N3CC3)=N2)N1
T/C (dose: 12.5 mg/kg/injection, schedule: Q01DX001 (ip), vehicle: saline with Tween-80): 108 % of control
T/C (dose: 25.0 mg/kg/injection, schedule: Q01DX001 (ip), vehicle: saline with Tween-80): 108 % of control
T/C (dose: 100.0 mg/kg/injection, schedule: Q01DX001 (ip), vehicle: saline with Tween-80): 156 % of control

CCN(CC)CCCNc1cc(C)nc2c1ccc1c2ccc2c(NCCCN(CC)CC)cc(C)nc21
T/C [12]: 105 % of control
T/C [13]: 103 % of control
T/C [14]: 116 % of control

C[N+](C)(C)CCOC(=O)CCC(=O)OCC[N+](C)(C)C
T/C (dose: 312.0 micrograms/kg/injection, schedule: Q01DX009 (ip), vehicle: saline): 104 % of control
T/C (dose: 625.0 micrograms/kg/injection, schedule: Q01DX009 (ip), vehicle: saline): 90 % of control
T/C (dose: 1250.0 micrograms/kg/injection, schedule: Q01DX009 (ip), vehicle: saline): 109 % of control

O=S(=O)(OI(O)c1ccccc1)c1ccccc1
T/C [12]: 98 % of control
T/C [13]: 116 % of control
T/C [14]: 105 % of control and 113 % of control

CCOc1nc2ccccc2nc1OCC
T/C [9]: 95 % of control
T/C [10]: 104 % of control

CC(C)OC(=S)SCC(=O)c1ccc(C(F)(F)F)cc1
T/C [5]: 105 % of control
T/C [6]: 104 % of control
T/C [7]: 98 % of control
T/C [8]: 100 % of control

CCN(CC)CCNc1ncnc2c1cnn2C
T/C (dose: 12.5 mg/kg/injection, schedule: Q01DX005 (ip), vehicle: saline): 106 % of control
T/C (dose: 25.0 mg/kg/injection, schedule: Q01DX005 (ip), vehicle: saline): 106 % of control
T/C [4]: 99 % of control
T/C (dose: 50.0 mg/kg/injection, schedule: Q01DX005 (ip), vehicle: saline): 106 % of control

COc1ccc(C(CC(=O)O)CC(=O)N(CCCl)CCCl)cc1 (stereo unspecified)
T/C (dose: 25.0 mg/kg/injection, schedule: Q01DX001 (ip), vehicle: saline): 100 % of control and 102 % of control
T/C (dose: 25.0 mg/kg/injection, schedule: Q04DX003 (ip), vehicle: saline with Tween-80): 101 % of control
T/C (dose: 25.0 mg/kg/injection, schedule: Q04DX003 (ip), vehicle: saline): 102 % of control
T/C (dose: 25.0 mg/kg/injection, schedule: Q04DX003 (ip), vehicle: suspension in saline): 106 % of control
T/C (dose: 50.0 mg/kg/injection, schedule: Q01DX001 (ip), vehicle: saline): 100 % of control and 103 % of control
T/C (dose: 50.0 mg/kg/injection, schedule: Q04DX003 (ip), vehicle: saline with Tween-80): 102 % of control
T/C (dose: 50.0 mg/kg/injection, schedule: Q04DX003 (ip), vehicle: saline): 102 % of control
T/C (dose: 50.0 mg/kg/injection, schedule: Q04DX003 (ip), vehicle: suspension in saline): 115 % of control
T/C (dose: 100.0 mg/kg/injection, schedule: Q01DX001 (ip), vehicle: saline): 100 % of control and 103 % of control
T/C (dose: 100.0 mg/kg/injection, schedule: Q04DX003 (ip), vehicle: saline with Tween-80): 101 % of control
T/C (dose: 100.0 mg/kg/injection, schedule: Q04DX003 (ip), vehicle: saline): 97 % of control
T/C (dose: 100.0 mg/kg/injection, schedule: Q04DX003 (ip), vehicle: suspension in saline): 124 % of control
T/C (dose: 200.0 mg/kg/injection, schedule: Q01DX001 (ip), vehicle: saline): 100 % of control and 104 % of control
T/C (dose: 200.0 mg/kg/injection, schedule: Q04DX003 (ip), vehicle: saline with Tween-80): 101 % of control
T/C (dose: 200.0 mg/kg/injection, schedule: Q04DX003 (ip), vehicle: saline): 94 % of control
T/C (dose: 200.0 mg/kg/injection, schedule: Q04DX003 (ip), vehicle: suspension in saline): 157 % of control

O=P(O)(O)SP(=O)(O)O.[Mn]
T/C (dose: 100.0 mg/kg/injection, schedule: Q04DX003 (ip), vehicle: Klucel (hydroxypropylcellulose) (HPC)): 105 % of control
T/C (dose: 200.0 mg/kg/injection, schedule: Q04DX003 (ip), vehicle: Klucel (hydroxypropylcellulose) (HPC)): 110 % of control
T/C (dose: 400.0 mg/kg/injection, schedule: Q04DX003 (ip), vehicle: Klucel (hydroxypropylcellulose) (HPC)): 119 % of control

CC1(C)C(=O)/C(=C/c2ccccc2N)Cc2ccccc21
T/C [9]: 90 % of control
T/C [10]: 107 % of control
T/C [11]: 102 % of control

C/C=C(\C)C(=O)OC1C(C)=C2C(C1OC(=O)CCCC)C(C)(OC(C)=O)CC(OC(=O)CCCC)C1(O)C2OC(=O)C1(C)O (stereo unspecified)
T/C (dose: 0.37 mg/kg/injection, schedule: Q01DX009 (ip), vehicle: Klucel (hydroxypropylcellulose) (HPC)): 92 % of control
T/C (dose: 0.75 mg/kg/injection, schedule: Q01DX009 (ip), vehicle: Klucel (hydroxypropylcellulose) (HPC)): 101 % of control
T/C (dose: 1.5 mg/kg/injection, schedule: Q01DX009 (ip), vehicle: Klucel (hydroxypropylcellulose) (HPC)): 100 % of control
T/C (dose: 3.0 mg/kg/injection, schedule: Q01DX009 (ip), vehicle: Klucel (hydroxypropylcellulose) (HPC)): 100 % of control
